Results: patent publication US9890166B2, “Imidazopyrrolidine derivatives and their use in the treatment of disease” (NOVARTIS AG, priority 2013, dated 2018)

Columns and labels:
[1] = tested on: MV-4-11 cells; test: Cell growth inhibition assay (CellTiter-Glo), MV-4-11; conditions: for GI50: Homo sapiens, MV4-11, read-out: MV-4-11 GI50; for MV-4-11 TGI: MV-4-11 cells, total growth inhibition, CellTiter-Glo;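 for all read-outs here: cellular ATP luminescence after 4 days, 3-fold dilution series from 10 µM top dose, vehicle (0.1% DMSO) set to 100%, cell-free medium set to −100%, day 0 corrected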
[2] = tested on: THP-1 cells; test: Cell growth inhibition assay (CellTiter-Glo), THP-1; conditions: for GI50: Homo sapiens, THP-1, read-out: THP-1 GI50; for THP-1 TGI: THP-1 cells, total growth inhibition, CellTiter-Glo;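 for all read-outs here: viability read as cellular ATP luminescence after 4 days, 3-fold dilution series from 10 µM, DMSO vehicle-treated cells taken as 100%, cell-free medium wells as −100%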
[3] = target: BRD2 (His-Brd2(60-472)) (Homo sapiens (Human), UniProt P25440); test: TR-FRET in-vitro binding assay for BRD2; conditions: single determination or n ≧ 2 independent determinations, read-out: Biochemical IC50 BRD2
Sequence of BRD2 (His-Brd2(60-472)) (P25440 60-472): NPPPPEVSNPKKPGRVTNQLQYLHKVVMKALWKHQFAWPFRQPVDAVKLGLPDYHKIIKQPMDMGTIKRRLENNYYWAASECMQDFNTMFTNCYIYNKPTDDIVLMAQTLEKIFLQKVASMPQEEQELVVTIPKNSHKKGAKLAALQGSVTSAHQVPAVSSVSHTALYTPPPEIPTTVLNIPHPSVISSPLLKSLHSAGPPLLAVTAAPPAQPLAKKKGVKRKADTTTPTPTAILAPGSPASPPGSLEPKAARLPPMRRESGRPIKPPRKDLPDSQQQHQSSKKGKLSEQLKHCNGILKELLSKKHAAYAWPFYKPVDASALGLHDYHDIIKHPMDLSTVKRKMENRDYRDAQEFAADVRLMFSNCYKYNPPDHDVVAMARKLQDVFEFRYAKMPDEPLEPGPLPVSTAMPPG
In short: (§1)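 His-tagged BRD2, BRD3 and BRD4 fragments tested by TR-FRET at 8 compound concentrations, with DMSO stocks at 10 mM. Read on EnVision after 35 min incubation at 30° C.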

[4] = target: BRD4 (His-Brd4(44-477)) (Homo sapiens (Human), UniProt O60885); test: TR-FRET in-vitro binding assay for BRD4; conditions: single determination or n ≧ 2 independent determinations, read-out: Biochemical IC50 BRD4
In short: as §1

[5] = target: BRD3 (His-Brd3(20-477)) (Homo sapiens (Human), UniProt Q15059); test: TR-FRET in-vitro binding assay for BRD3; conditions: single determination or n ≧ 2 independent determinations, read-out: Biochemical IC50 BRD3
Sequence of BRD3 (His-Brd3(20-477)) (Q15059 20-477): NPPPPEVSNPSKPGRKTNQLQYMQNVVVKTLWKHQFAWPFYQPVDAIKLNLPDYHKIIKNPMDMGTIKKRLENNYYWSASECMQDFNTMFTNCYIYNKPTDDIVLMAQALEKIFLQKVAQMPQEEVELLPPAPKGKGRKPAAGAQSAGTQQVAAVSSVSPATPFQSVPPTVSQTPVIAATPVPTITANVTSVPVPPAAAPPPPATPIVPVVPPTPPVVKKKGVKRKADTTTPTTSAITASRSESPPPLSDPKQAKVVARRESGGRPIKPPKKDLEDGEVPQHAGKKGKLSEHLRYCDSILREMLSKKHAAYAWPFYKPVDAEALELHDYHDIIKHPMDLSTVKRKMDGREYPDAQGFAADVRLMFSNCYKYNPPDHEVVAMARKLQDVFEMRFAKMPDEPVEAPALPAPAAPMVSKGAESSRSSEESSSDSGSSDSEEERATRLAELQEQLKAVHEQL
In short: as §1

[6] = tested on: K-562 cells; test: Cell growth inhibition assay (CellTiter-Glo), K-562; conditions: for GI50: Homo sapiens, K562, read-out: K-562 GI50; for K-562 TGI: K-562 cells, total growth inhibition, CellTiter-Glo;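 for all read-outs here: cellular ATP measured by luminescence after 4 days of exposure, 3-fold dilution series from 10 µM, DMSO vehicle-treated cells define 100%, cell-free medium wells −100%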
[7] = target: CREBBP bromodomain (His-CREBBP(1081-1197)) (Homo sapiens (Human), UniProt Q92793); test: AlphaScreen in-vitro binding assay for CREBBP; conditions: single determination or n ≧ 2 independent determinations, read-out: Biochemical IC50 CREBBP
Sequence of CREBBP bromodomain (His-CREBBP(1081-1197)) (Q92793 1081-1197): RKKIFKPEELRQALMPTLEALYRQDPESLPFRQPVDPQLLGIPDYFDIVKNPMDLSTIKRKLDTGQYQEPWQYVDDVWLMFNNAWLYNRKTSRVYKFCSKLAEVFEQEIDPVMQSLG
In short: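 Detection used nickel-chelate acceptor plus streptavidin donor AlphaScreen beads, 1 h room temperature. Percent inhibition fitted by non-linear regression to IC50.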

| Compound | GI50 [1] [nM] | GI50 [2] [nM] | IC50 [3] [nM] | IC50 [4] [nM] | IC50 [5] [nM] | GI50 [6] [nM] | IC50 [7] [nM] | MV-4-11 TGI [1] [nM] | THP-1 TGI [2] [nM] | K-562 TGI [6] [nM] |
| --- | --- | --- | --- | --- | --- | --- | --- | --- | --- | --- |
| COc1cc(N2C(=O)c3nc(C4=CCCN(C)C4)n(C(C)C)c3C2c2ccc(Cl)cc2)cc2c1nnn2C (stereo not shown) [Example 62] | 41.9 | 164 | 150 | 120 | 86 | 391 | 31400 | 80.25 | 331.5 | >10000 |
| COC(=O)N1CC=C(c2nc3c(n2C(C)C)C(c2ccc(Cl)cc2)N(c2cc(C)c4nnc(C)n4c2)C3=O)CC1 (stereo not shown) [Example 65, methyl 4-(6-(4-chlorophenyl)-5-(3,8-dimethyl-[1,2,4]triazolo[4,3-a]pyridin-6-yl)-1-isopropyl-4-oxo-1,4,5,6-tetrahydropyrrolo[3,4-d]imidazol-2-yl)-5,6-dihydropyridine-1(2H)-carboxylate] | 19.3 | 138 | 50 | 24 | 27.5 | 298 | 4000 | 38.95 | 299.5 | >10000 |
| Cc1cc(N2C(=O)c3nc(C4=CCN(C(=O)OCC(C)C)CC4)n(C(C)C)c3C2c2ccc(Cl)cc2)cn2c(C)nnc12 (stereo not shown) [Example 69, isobutyl 4-(6-(4-chlorophenyl)-5-(3,8-dimethyl-[1,2,4]triazolo[4,3-a]pyridin-6-yl)-1-isopropyl-4-oxo-1,4,5,6-tetrahydropyrrolo[3,4-d]imidazol-2-yl)-5,6-dihydropyridine-1(2H)-carboxylate] | 31.6 | 63.4 | 24 | 12 | 13 | 184 | 6100 | 58.45 | 167.5 | >10000 |

Continued, in another order:

| GI50 [1] [nM] | GI50 [2] [nM] | IC50 [3] [nM] | IC50 [4] [nM] | IC50 [5] [nM] | GI50 [6] [nM] | IC50 [7] [nM] | Compound | MV-4-11 TGI [1] [nM] | THP-1 TGI [2] [nM] | K-562 TGI [6] [nM] |
| --- | --- | --- | --- | --- | --- | --- | --- | --- | --- | --- |
| 88.2 | 192 | 240 | 72 | 96.5 | 458 | 21900 | COc1cc(N2C(=O)c3nc(C)n(C(C)C)c3C2c2ccc(Cl)cc2)cc2c1nnn2C (stereo not shown) [Example 63] | 141 | 369 | >10000 |
| 232 | 1760 | 86 | 31.5 | 66 | 5540 | 3450 | CC(=O)N1CC=C(c2nc3c(n2C(C)C)C(c2ccc(Cl)cc2)N(c2cc(C)c4nnc(C)n4c2)C3=O)CC1 (stereo not shown) [Example 66] | 430 | 5860 | >10000 |
| 165 | 1280 | 38 | 17 | 20.5 | 5400 | 5200 | Cc1cc(N2C(=O)c3nc(C4=CCN(S(C)(=O)=O)CC4)n(C(C)C)c3C2c2ccc(Cl)cc2)cn2c(C)nnc12 (stereo not shown) [Example 67, 6-(4-chlorophenyl)-5-(3,8-dimethyl-[1,2,4]triazolo[4,3-a]pyridin-6-yl)-1-isopropyl-2-(1-(methylsulfonyl)-1,2,3,6-tetrahydropyridin-4-yl)-5,6-dihydropyrrolo[3,4-d]imidazol-4(1H)-one] | 332.5 | 3275 | >10000 |
| 21.3 | 258 | 77 | 30 | 44.5 | 1380 | 5000 | CCN1CC=C(c2nc3c(n2C(C)C)C(c2ccc(Cl)cc2)N(c2cc(C)c4nnc(C)n4c2)C3=O)CC1 (stereo not shown) [Example 68, 6-(4-chlorophenyl)-5-(3,8-dimethyl-[1,2,4]triazolo[4,3-a]pyridin-6-yl)-2-(1-ethyl-1,2,3,6-tetrahydropyridin-4-yl)-1-isopropyl-5,6-dihydropyrrolo[3,4-d]imidazol-4(1H)-one] | 37.1 | 458 | >10000 |
